According to patent US20060051754A1, “Transporter selectively transporting sulfate conjugate and its gene” (Japan Science and Technology Agency, priority 2002, published 2006):
Structures can show the parent of a compound that is named as a salt.

Experiments:
Format in all cases: cell-based
[1] = target: T1, human OAT7 (Homo sapiens, UniProt Q8IVM8); assay: substrate uptake experiment by oocyte into which the human OAT7 gene cRNA was injected
T1 construct: expressed in transfected cells
Protocol: After expressing the human OAT7 gene cRNA in an oocyte, [^3H]estrone-sulfate conjugate uptake and [^3H]dehydroepiandrosterone-sulfate conjugate uptake were measured.
After injecting 20 ng of the human OAT7 gene cRNA into the oocyte to be expressed, a 3-days culture was performed.
(§1) A substrate uptake experiment was performed on the oocyte into which the human OAT7 gene cRNA was injected and a control oocyte into which water was injected, using the [^3H]estrone-sulfate conjugate and the [^3H]dehydroepiandrosterone-sulfate conjugate as the substrates in accordance with the method of Kanai et al. (Kanai and Hediger, Nature, Vol. 360, pp. 467 to 471, 1992) as described below. After leaving the oocyte in an ND96 solution (96 mM sodium chloride, 2 mM potassium chloride, 1.8 mM calcium chloride, 1 mM magnesium chloride, 5 mM HEPES, pH7.4) containing the [^3H]estrone-sulfate conjugate (50 nM) and the [^3H]dehydroepiandrosterone-sulfate conjugate (100 nM) as a substrate for 60 minutes, and an uptake ratio of the substrate was measured by way of counting radioactivity taken up into the cells.
Time passage of the substrate uptake by the oocyte into which the human OAT7 gene cRNA was injected and a control oocyte into which water was injected was observed using the [^3H]estrone-sulfate conjugate (50 nM) as the substrate and in accordance with the method of Example 2(1).
The effect of salt added in the culture used in the [^3H]estrone-sulfate conjugate (50 nM) uptake experiment were examined using an oocyte into which the human OAT7 gene cRNA was injected and a control oocyte into which water was injected.
The [^3H]estrone-sulfate conjugate uptake experiment was conducted in accordance with the method described in Example 2(1) using the oocyte into which the human OAT7 gene cRNA was injected. In the experiment, a sodium ion free absorption solution (wherein 96 mM sodium chloride was substituted with 96 mM choline chloride) was used as an uptake solution in place of the standard absorption solution for the purpose of observing the effect of the sodium ion.

[2] = target: T1, human OAT7; assay: Michaelis-Menten kinetics test on OAT7 (oocyte uptake); conditions: mean±standard error; OAT7-expressing oocyte; FIGS. 7A and 7B
Protocol: as §1
A Michaelis-Menten kinetics test on the liver specific organic anion transporter OAT7 selectively transporting a sulfate conjugate was conducted. The Michaelis-Menten kinetics test on OAT7 was performed by examining changes in uptake ratio of the substrate [^3H]estrone-sulfate conjugate and the [^3H]dehydroepiandrosterone-sulfate conjugate depending on the concentrations of the substrate [^3H]estrone-sulfate conjugate and the [^3H]dehydroepiandrosterone-sulfate conjugate. […]

[3] = target: T1, human OAT7; assay: inhibition of [3H]estrone-sulfate conjugate uptake by OAT7-expressing oocyte (substrate selectivity); conditions: [3H]estrone-sulfate conjugate 1 μM, 100 μM of unlabeled compound; FIGS. 8, 9, 10A and 10B
Protocol: as §1
In the [^3H]estrone-sulfate conjugate uptake experiment using an oocyte into which the human OAT7 gene cRNA was injected, the effect of addition of various organic anions and organic cations on the system was examined.
The [^3H]estrone-sulfate conjugate uptake experiment was conducted using the oocyte into which the human OAT7 gene cRNA was injected and in accordance with the method described in Example 2(1). In the experiment, [^3H]estrone-sulfate conjugate (1 μM) uptake was measured under the presence and the absence of 100 μM of various compounds (unlabeled).
Since OAT7 is the organic anion transporter existing in the liver, effects of various organic anions which are considered to be transported in the hepatic cells on the [^3H]estrone-sulfate conjugate uptake by way of OAT7 were examined.
In order to clarify which one of the sulfate conjugate, the glucuronide conjugate, the glutathione conjugate is accepted by OAT7, effects of various conjugate compounds on the [^3H]estrone-sulfate conjugate uptake were examined.

T1 sequence (Q8IVM8 whole entry): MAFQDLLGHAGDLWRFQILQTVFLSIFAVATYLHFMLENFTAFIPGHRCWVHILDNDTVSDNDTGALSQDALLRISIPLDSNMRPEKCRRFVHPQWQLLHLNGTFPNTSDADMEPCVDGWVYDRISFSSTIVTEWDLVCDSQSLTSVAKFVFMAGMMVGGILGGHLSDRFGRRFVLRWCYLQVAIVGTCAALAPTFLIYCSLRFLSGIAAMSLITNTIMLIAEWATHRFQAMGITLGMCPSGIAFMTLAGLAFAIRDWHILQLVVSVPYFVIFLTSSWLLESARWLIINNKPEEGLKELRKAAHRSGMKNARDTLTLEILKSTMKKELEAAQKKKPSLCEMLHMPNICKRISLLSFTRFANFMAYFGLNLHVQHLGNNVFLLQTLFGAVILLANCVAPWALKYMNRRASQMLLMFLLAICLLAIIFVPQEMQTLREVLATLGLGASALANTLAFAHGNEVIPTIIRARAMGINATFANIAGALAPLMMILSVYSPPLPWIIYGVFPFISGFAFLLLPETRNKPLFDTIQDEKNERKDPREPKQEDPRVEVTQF

Row | Structure (SMILES) | cys-inhibition effect on [3H]estrone-sulfate conjugate uptake [3] | also measured
1 | C[C@]12CC[C@@H]3c4ccc(OS(=O)(=O)O)cc4CC[C@H]3[C@@H]1CCC2=O [estrone-sulfate conjugate] | significant cys-inhibition effect | [3H]estrone-sulfate conjugate uptake by oocytes in which OAT7 was expressed vs control oocyte into which water was injected ([1]; substrate 50 nM, ND96 solution pH7.4, 60 minutes, FIG. 6A): significantly greater; effect of change of extracellular sodium to choline on uptake ([1]; substrate 50 nM, 96 mM sodium chloride substituted with 96 mM choline chloride, FIG. 6C): no effect; time dependency of uptake by way of OAT7 ([1]; substrate 50 nM, FIG. 6B): increases substantially linearly in a time dependent manner till the passage of 120 minutes; Km [2]: 8.7 ± 1.1 µM
2 | O=[N+]([O-])c1ccc(OS(=O)(=O)O)cc1 [p-nitrophenol-sulfate conjugate] | significant cys-inhibition effect | –
3 | Cc1cc(=O)oc2cc(OS(=O)(=O)O)ccc12 [4-methylumbelliferyl sulfate conjugate] | significant cys-inhibition effect | –
4 | C[C@]12CC[C@H](OS(=O)(=O)O)CC1=CC[C@@H]1[C@@H]2CC[C@]2(C)C(=O)CC[C@@H]12 [dehydroepiandrosterone-sulfate conjugate] | significant cys-inhibition effect | [3H]dehydroepiandrosterone-sulfate conjugate uptake by oocytes in which OAT7 was expressed vs control oocyte into which water was injected ([1]; substrate 100 nM, ND96 solution pH7.4, 60 minutes, FIG. 6A): significantly greater; Km [2]: 2.2 ± 0.3 µM
5 | N=c1nc(N2CCCCC2)cc(N)n1OS(=O)(=O)O [minoxidil-sulfate conjugate] | significant cys-inhibition effect | –
6 | O=C1OC(c2ccc(O)c(S(=O)(=O)O)c2)(c2ccc(O)c(S(=O)(=O)O)c2)c2c(Br)c(Br)c(Br)c(Br)c21 [sulfobromophthalein] | significant cys-inhibition effect | –
7 | CC1(C)C(/C=C/C=C/C=C/C=C2\N(CCCCS(=O)(=O)[O-])c3ccc4ccccc4c3C2(C)C)=[N+](CCCCS(=O)(=O)[O-])c2ccc3ccccc3c21.[Na+] [indocyanin green] | significant cys-inhibition effect | –
8 | C[C@]12CC[C@@H]3c4ccc(OS(=O)(=O)O)cc4CC[C@H]3[C@@H]1CC[C@@H]2O [β-estradiol-sulfate conjugate] | significant cys-inhibition effect | –
